Laboratory results: BindingDB's records for doi:10.1016/j.bmcl.2004.05.036 (Abbott Laboratories, 2004)
pEC50: −log10 of the molar value.

Experiment: Antiviral activity against HIV protease in absence of human serum

## CCCCN1C(=O)N(Cc2cccc(C(=N)NO)c2)[C@H](Cc2ccccc2)[C@H](O)CN1S(=O)(=O)c1cccc(OC)c1
  pEC50: 7.52
